# Data as given in US20040019070A1, “Pyrrole-condensed morphinoid derivatives” (priority 2000, published 2004).
# How the values were obtained:
# [1] = molecular target: T1, human delta opioid receptor (Homo sapiens, UniProt P41143); assay: radioligand binding assay, [3H]-DADLE, cloned human delta opioid receptor in CHO cells
# T1 construct: expressed in transfected cells; membranes prepared
# Description: The activity of the compounds of the present invention as selective delta ligands is determined in radioligand binding assays as described below.
# (§1) The activity of the compounds of the present invention as selective delta ligands is determined in radioligand binding assays using cloned human delta, mu and kappa opioid receptors stably expressed in cell lines as described below.
# (§2) CHO cells were subjected to stable transfection with cDNA encoding the human delta and mu opioid receptors. Clones were grown in suspension culture in serum free media. Selection was performed by growth in the absence of nucleotides.
# (§3) Membranes were prepared as previously described (J. Med. Chem. 1997, 40, 3192 ). The binding of the preferential delta ligand [^3H]-[D-Ala^2,D-Leu^5]-enkephalin (DADLE) was evaluated at its KD concentration (0.7 nM). The binding of the mu ligand [^3H]-DAMGO (Eur. J. Pharmacol., 1989, 166, 213) and of the kappa ligand [^3H]-U69593 (Excerpta Medica, 1990, 211) were carried out at 0.5 nM. Non specific binding was determined in the presence of 10 uM of naloxone. Binding data were expressed as percentage of inhibition and fitted the following equation: f(x)=100·X/(IC50+X) where X is the cold drug concentration value. The IC50 values obtained were used to calculate the inhibitory constants (Ki) accordingly to the Cheng and Prusoff relation (Biochem. Pharmacol., 1973, 22, 3099).
# human mu opioid receptor = molecular target: T2, human mu opioid receptor (Homo sapiens, UniProt P35372); assay: radioligand binding assay, [3H]-DAMGO, cloned human mu opioid receptor in CHO cells; conditions: ratio of Ki at mu ([3H]-DAMGO 0.5 nM) to Ki at delta
# T2 construct: expressed in transfected cells; membranes prepared
# T2 sequence (P35372 whole entry): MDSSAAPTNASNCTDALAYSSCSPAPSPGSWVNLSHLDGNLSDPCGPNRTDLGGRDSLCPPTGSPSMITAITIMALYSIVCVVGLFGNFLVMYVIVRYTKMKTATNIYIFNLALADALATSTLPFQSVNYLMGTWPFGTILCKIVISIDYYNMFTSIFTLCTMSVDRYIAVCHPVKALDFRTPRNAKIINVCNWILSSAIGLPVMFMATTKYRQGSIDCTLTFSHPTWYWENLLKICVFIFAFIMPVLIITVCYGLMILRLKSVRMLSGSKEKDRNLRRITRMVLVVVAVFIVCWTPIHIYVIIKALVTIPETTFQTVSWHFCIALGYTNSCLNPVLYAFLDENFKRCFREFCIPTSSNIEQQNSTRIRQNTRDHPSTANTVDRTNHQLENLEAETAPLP
# Description: as §1, §2, §3
# T1 sequence (P41143 whole entry): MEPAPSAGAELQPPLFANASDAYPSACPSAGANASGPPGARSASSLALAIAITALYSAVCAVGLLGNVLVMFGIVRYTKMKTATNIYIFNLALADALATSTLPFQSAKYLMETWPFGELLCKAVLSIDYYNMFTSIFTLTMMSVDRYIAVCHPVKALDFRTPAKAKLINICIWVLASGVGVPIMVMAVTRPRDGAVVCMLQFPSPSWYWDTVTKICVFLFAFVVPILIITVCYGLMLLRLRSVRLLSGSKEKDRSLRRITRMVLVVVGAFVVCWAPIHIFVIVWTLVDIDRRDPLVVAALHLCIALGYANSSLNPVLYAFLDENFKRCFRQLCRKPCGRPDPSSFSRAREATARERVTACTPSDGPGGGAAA
SMILES,Ki [1],Ki mu/Ki delta (human mu opioid receptor)
COc1ccc2c3c1O[C@H]1c4[nH]c(C(=O)N5C(C)(C)CCCC5(C)C)c(C)c4C[C@H]4[C@@H](C2)N(C)CC[C@]314 [Example 1],300 pM,267
COc1ccc2c3c1O[C@H]1c4[nH]c(C(=O)N5CCC(C(=O)c6ccccc6)CC5)c(C)c4C[C@H]4[C@@H](C2)N(C)CC[C@]314 [Example 6],1400 pM,220
